Measurements: publication PMC10389753, “Rational Design of Chitin Deacetylase Inhibitors for Sustainable Agricultural Use Based on Molecular Topology” (Journal of Agricultural and Food Chemistry, 2022)

Columns and labels:
PxCDA2 = target: T1, PxCDA2 (Podosphaera xanthii, UniProt A0A6S4IDJ3); test: fluorescamine assay, colloidal chitin substrate; assay type: biochemical
T1 construct: recombinant, N-terminal 6-His tag, expressed in E. coli
Source text: fluorescamine assay, colloidal chitin substrate on PxCDA2

PxCDA1 = target: T2, PxCDA1 (Podosphaera xanthii, UniProt A0A6S4IFB1); test: fluorescamine assay, colloidal chitin substrate; assay type: biochemical
T2 construct: recombinant, N-terminal 6-His tag, expressed in E. coli
T2 sequence (A0A6S4IFB1 23-324 limits assumed): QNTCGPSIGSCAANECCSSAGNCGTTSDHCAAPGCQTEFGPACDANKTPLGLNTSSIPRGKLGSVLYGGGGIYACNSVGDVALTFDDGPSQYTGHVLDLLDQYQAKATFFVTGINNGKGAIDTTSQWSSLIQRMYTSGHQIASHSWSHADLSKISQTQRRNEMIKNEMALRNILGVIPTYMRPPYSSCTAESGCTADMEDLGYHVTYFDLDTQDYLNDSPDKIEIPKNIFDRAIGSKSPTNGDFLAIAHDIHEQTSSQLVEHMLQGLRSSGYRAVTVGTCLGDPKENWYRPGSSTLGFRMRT
Source text: fluorescamine assay, colloidal chitin substrate on PxCDA1

T1 sequence (A0A6S4IDJ3 23-314 limits assumed): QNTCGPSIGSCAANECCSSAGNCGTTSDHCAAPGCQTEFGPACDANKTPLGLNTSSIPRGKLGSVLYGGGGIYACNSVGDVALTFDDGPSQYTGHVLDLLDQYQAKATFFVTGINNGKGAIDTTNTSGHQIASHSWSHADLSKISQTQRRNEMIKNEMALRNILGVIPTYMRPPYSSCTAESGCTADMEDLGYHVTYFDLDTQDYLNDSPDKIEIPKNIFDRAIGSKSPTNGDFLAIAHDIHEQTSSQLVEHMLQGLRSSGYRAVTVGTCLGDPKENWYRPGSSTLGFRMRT

SMILES	inhibition at 100 µM (PxCDA2) [%]	inhibition at 100 µM (PxCDA1) [%]
CN1C(=O)C(=Cc2cccc(OCC(=O)O)c2)C(=O)N(C)C1=O [VS#2-1]	74.5	86.9
Cn1c(=O)n(CC(=O)O)c(=O)c2c1nc1n2CCS1 [VS#2-2]	93	79.4
C=CCN1C(=O)NC(=O)/C(=C/c2ccc(OCC(=O)O)c(OC)c2)C1=O [VS#2-3]	74.5	86.8
